Reference: US20220226484A1, “THERAPEUTIC PEPTIDES” (COHBAR, INC., priority 2019, published 2022)
Positions of bridges follow the written chain, without caps; N, C: chain ends. Non-standard residues stand in square brackets, D forms with d. Primed or numbered codes have the meaning given here. Chains are numbered I, II in the order given. No end group written: not given here. PEG12′ = not defined here

B1: BDNF: positive control, BDNF (50 ng/ml) (protein, UniProt P23560 19-247, looked up)
Neurotrophic factor BDNF …: APMKEANIRGQGGLAYPGVRTHGTLESVNGPKAGSRGLTSLADTFEHVIEELLDEDQKVRPNEENNKDADLYTSRVMLSSQVPLEPPLLFLLEEYKNYLDAANMSMRVRRHSDPARRGELSVCDSISEWVTAADKKTAVDMSGGTVTVLEKVPVSKGQLKQYFYETKCNPMGYTKEGCRGIDKRHWNSQCRTTQSYVRALTMDSKKRIGWRFIRIDTSCVCTLTIKRGR

Columns and labels:
Format in all cases: cell-based
C2C12 Mouse Myoblasts = assay: Glucose utilization; details: metformin 1 mM
Experimental: The effect of the peptides on glucose metabolism can be assessed using an assay of glucose utilization in cultured cultured cells such as mouse myoblasts. Peptides were initially prepared as 10 mM stock in DMSO and used at a final concentration of 10 μM (0.1% DMSO). C2C12 mouse myoblast cell line was purchased from American Type Culture Collection (Manassas, Va.). C2C12 cultures were maintained at 37° C. in a humidified atmosphere of 5% CO2/95% air with medium changes every second day. C2C12 cells were grown in DMEM (1 g/L glucose) supplemented with 10% FBS with 100 IU/ml penicillin and 100 μg/ml streptomycin. C2C12 cells were seeded at 7,000 cells per well on 96-well plates and cultured to confluence. Once the cell reached confluence the media was changed to DMEM (1 g/L glucose) supplemented with 2% HS with 100 IU/ml penicillin and 100 μg/ml streptomycin and maintained at 37° C. in a humidified atmosphere of 5% CO2/95% air. 5 days post-induction of differentiation fresh DMEM (1 g/L glucose) supplemented with 2% HS with 100 IU/ml penicillin and 100 μg/ml streptomycin was added to cultures. Cells were maintained at 37° C. in a humidified atmosphere of 5% CO2 and 95% air for 5 hours. After 5 hours test peptides at 10 μM or controls (0.5 mM or 1 mM metformin in 1% DMSO) prepared in fresh differentiation medium were added to cells and the cultures were maintained at 37° C. in a humidified atmosphere of 5% CO2/95% air for 18-22 hours. At the end of the incubation culture media was removed from the cells and the remaining glucose concentration was measured using a Glucose Assay kit (Abcam) according to the manufacturer's instructions, using a Cytation 3 plate reader at 570 nm (BioTek, Winooski, Vt.). Glucose concentrations in the medium were calculated relative to 0.1% DMSO treated control cells. The relative standard deviation of the result for the 0.1% DMSO treated control was <20%. Metformin was used as a positive control for reduction of glucose levels (increased glucose utilization glucose levels for treatment with metformin (1 mM) treatment were <20% of the 0.1% DMSO treated control value. The results are reported in Table 7.

3T3-L1 Mouse Adipocytes = assay: Insulin-dependent effect on free fatty acid levels in cultured mouse adipocytes; details: 3 hours; for Free Fatty Acid Levels, MEAN % ISO, +Insulin: peptide 10 μM + insulin 0.25 nM, percent of isoproterenol (0.1 nM)+insulin (0.25 nM); for Free Fatty Acid Levels, MEAN % ISO, −Insulin: peptide 10 μM alone, percent of isoproterenol (0.1 nM) treated control cells
Experimental: The effect of the peptides on fatty acid metabolism was assessed in the absence and presence of insulin using an assay of free fatty acid levels in cultured cells such as mouse adipocytes. Peptides were initially prepared as 10 mM stock in DMSO and used at a final concentration of 10 μM (0.1% DMSO). […] Insulin (0.25 nM) was used as a partial inhibitor and insulin (10 nM) was used as a potent inhibitor of isoproterenol stimulated fatty acid production. Mouse 3T3-L1 cells purchased from ZenBio (Research Triangle Park, N.C.) were seeded at 3,000 cells per well on 96-well plates in Pre-Adipocyte Medium (Zen-Bio) and grown to confluence at 37° C. in a humidified atmosphere of 5% CO2/95% air. Two days after confluence, cells were placed in Adipocyte Differentiation Medium (Zen-Bio) and cultured for three additional days at 37° C. in a humidified atmosphere of 5% CO2/95% air. The culture medium was then partially replaced with Adipocyte Maintenance Medium (Zen-Bio) and the cells maintained at 37° C. in a humidified atmosphere of 5% CO2/95% air with partial medium replacement every other day. At 12 day of differentiation, 96-well cultures were transferred to Adipocyte Maintenance Medium without insulin and placed at 37° C. in a humidified atmosphere of 5% CO2/95% air for two days. Following this incubation period, the medium was removed from 14 day differentiated cultures and replaced with Assay Buffer (Zen-Bio) containing peptides (10 μM), insulin (0.25 nM or 10 nM), isoproterenol (0.1 nM) as appropriate. […] isoproterenol was added to all wells except untreated controls. Insulin at 0.1 nM and 10 nM was added to control wells. Peptides (10 μM) in the absence or presence of insulin (0.25 nM) were added to test wells. Cells in the presence of compounds were placed at 37° C. in a humidified atmosphere of 5% CO2/95% air for 3 hours. At the end of the final 3 h incubation, conditioned assay buffer was removed from each well and place in a fresh 96-well plate for quantitation of free fatty acid content. Free fatty acid concentrations in the assay buffer samples were determined using a Free Fatty Acid Assay kit (Zen-Bio) according to the manufacturer's instructions using a Cytation 3 plate reader at 540 nm (BioTek, Winooski, VD. Absorbance values were corrected for untreated background and expressed as a percent of isoproterenol (0.1 nM) treated control cells for peptides alone or isoproterenol (0.1 nM)+insulin (0.25 nM) for peptides in presence of insulin (0.25 nM). Treatment with isoproterenol […] alone was used as the free fatty acid level stimulatory control. The relative standard deviation of the isoproterenol control was <10%. […] Free fatty acid levels for insulin (10 nM) treatment were <5% of the isoproterenol control value. Free fatty acid levels for insulin (0.25 nM) treatment were 60-80% of the isoproterenol control value.

H4IIE Rat Hepatoma Cells = assay: Insulin-dependent effect on glucose production by cultured rat liver cells; details: 24 hour; for Glucose Levels, MEAN % Control, +Insulin: peptide 10 μM + insulin 800 pM, percent of insulin (800 pM); for Glucose Levels, MEAN % Control, −Insulin: peptide 10 μM alone, percent of untreated control cells
Experimental: The effect of the peptides on glucose production was assessed in the absence and presence of insulin using an assay of glucose levels in cultured cells such as rat hepatocytes. Peptides were initially prepared as 10 mM stock in DMSO and used at a final concentration of 10 μM (0.1% DMSO). Insulin (800 pM) was used as a partial inhibitor of glucose production. H4-IIE cells purchased from ATCC (Manassas, Va.) were seeded at 100,000 cells/well in standard medium (DMEM/high glucose+10% FBS+1× Glutamax+antibiotics) on 96-well plates and allowed to adhere overnight at 37° C. in a humidified atmosphere of 5% CO2/95% air. Approximately 24 h after seeding, the medium was removed, cells rinsed with glucose free DMEM, and Glucose Production Medium (glucose free DMEM+2 mM sodium pyruvate+10 mM sodium lactate) was added. The cultures were placed at 37° C. in a humidified atmosphere of 5% CO2/95% air overnight. The next morning, the medium was removed and fresh Glucose Production Medium containing compounds was added. Insulin at 800 pM was added to control wells. Peptides (10 μM) in the absence or presence of insulin (800 pM) were added to test wells. Cells in the presence of compounds were placed at 37° C. in a humidified atmosphere of 5% CO2/95% air overnight. After 24 hour incubation, conditioned medium from each well was transferred to a fresh 96-well plate for quantitation of glucose content. Quantitation of glucose levels was determined using an Amplex Red Glucose Assay kit (Abacm; Cambridge, Mass.) according to the manufacturer's instructions using a Cytation 3 plate reader at 570 nm (BioTek, Winooski, Vt.). Absorbance values were expressed as a percent of untreated control cells (maximum glucose production) for peptide alone samples or insulin (800 pM) for peptides in the presence of insulin (800 pM. Glucose levels for insulin (800 pM) treatment were ˜80-90% of the untreated control values. The results are reported in Table 15.

[1] = test system: WI-38 cells (human fetal lung fibroblast cells); assay: Fibroblast-to-myofibroblast transition assay, pro-collagen I alpha 1 expression; details: 10 μM peptide and 5 ng/ml TGF-β, 48 h, cell lysates
Experimental: The effect of the peptides on fibrosis can be assessed in vitro using a fibroblast-to-myofibroblast transition (FMT) assay and monitoring pro-collagen I alpha 1 expression produced by cultured cells such as human fetal lung fibroblast cells. Peptides were initially prepared as 10 mM stock solutions in DMSO or 1 mM stock in H2O and were used at a final concentration of 10 μM (0-0.1% DMSO). Transforming Growth Factor beta (TGF-β) was used as a potent inducer of FMT as measured by increased pro-collagen I alpha 1 expression. Human WI-38 cell line was purchased from American Type Culture Collection (Manassas, Va.). WI-38 cells were seeded in complete medium (DMEM/high glucose (4 g/L)+10% Fetal Bovine Serum+1% penicillin/streptomycin) at 40,000 cells/well on 48-well plates and placed at 37° C. in a humidified atmosphere of 5% CO2/95% air. The next day, the medium was removed, cells were rinsed twice with HBSS, and the medium replaced with Serum Restricted Medium (DMEM/high glucose (4 g/L)+0.2% Fetal Bovine Serum+1% penicillin/streptomycin). The cultures were placed at 37° C. in a humidified atmosphere of 5% CO2/95% air overnight. Following 24 h in Serum Restricted Medium, the medium was removed, and the following was added: fresh Serum Restricted Medium alone (no TGF-β control); fresh Serum Restricted Medium containing 5 ng/ml TGF-β (TGF-β control); or fresh Serum Restricted Medium containing 10 μM peptide and 5 ng/ml TGF-β. Cells were incubated for 48 h at 37° C. in a humidified atmosphere of 5% CO2/95% air, washed twice with cold HBSS and immediately lysed. Lysis and determination of pro-collagen I alpha 1 concentrations in the cell lysates were performed using a Pro-Collagen I Alpha 1 ELISA kit (Abcam; Cambridge, Mass.) according to the manufacturer's instructions; absorbance was measured using a Cytation 3 plate reader at 450 nm (BioTek, Winooski, Vt.).

[2] = test system: Rat primary cortical neurons; assay: Neuroprotection against Aβ (1-42) toxicity in cultured neurons; details: Aβ (1-42) 20 μM + BDNF 50 ng/mL, 24 hours
Experimental: Rat primary cortical neurons were collected and cultured by methods well known in the art (Singer et al., 1999 and Callizot et al., 2013). The cells were seeded at a density of 25,000 per well in 96-well plates precoated with poly-L-lysine and cultured at 37° C. in an air (95%)-CO2 (5%) incubator. The medium was changed every 2 days. The cortical neurons were treated after 11 days of culture. The A13(1-42) was prepared using the procedure described by Callizot et al., 2013 to ensure monomeric peptide. Compounds and the positive control, BDNF (50 ng/ml), were dissolved in culture medium and then pre-incubated with primary cortical neurons for 1 hour before addition of A13(1-42) (20 μM). After 24 hours of treatment, the cell culture supernatant was removed and the cortical neurons were fixed by a cold solution of ethanol (95%) and acetic acid (5%) for 5 min at −20° C. After permeabilization with 0.1% of saponin, cells were incubated for 2 hours with mouse monoclonal antibody anti-microtubule-associated-protein 2 (MAP-2) at a dilution of 1/400 in PBS containing 1% fetal calf serum and 0.1% of saponin to stain cell bodies and neurites.
This antibody was detected with Alexa Fluor 488 goat anti-mouse IgG at the dilution 1/400 in PBS containing 1% FCS, 0.1% saponin, for 1 hour at room temperature. For each condition, images were obtained using ImageXpress (Molecular Devices) with 20× magnification. The total number of cells and extent of neurite network was determined using Custom Module Editor (Molecular Devices).

Row | Molecule | Procollagen I Alpha 1 Mean (SEM) [1] | Free Fatty Acid Levels, MEAN % ISO, +Insulin (3T3-L1 Mouse Adipocytes) [%] | Free Fatty Acid Levels, MEAN % ISO, −Insulin (3T3-L1 Mouse Adipocytes) [%] | Glucose Levels, MEAN % Control, +Insulin (H4IIE Rat Hepatoma Cells) [%] | Glucose Levels, MEAN % Control, −Insulin (H4IIE Rat Hepatoma Cells) [%] | also measured
1 | CN(C)C(=N)N=C(N)N [metformin, reference compound] | – | – | – | – | – | glucose levels, % of the 0.1% DMSO treated control value (C2C12 Mouse Myoblasts): < 20%
2 | RVIRMCLNVGLLGEL(dA)G [SEQ ID NO: 27] (chain 1 RVIRMCLNVGLLGEL[dA]G; chain 2 RVIRMCLNVGLLGEL[dA]G; disulfide I:6-II:6) | 4120 (677) pg/mL | – | – | – | – | Free Fatty Acid Levels, MEAN % ISO, +Insulin (3T3-L1 Mouse Adipocytes; listed as 27): 28.2%; Free Fatty Acid Levels, MEAN % ISO, −Insulin (3T3-L1 Mouse Adipocytes; listed as 27): 94.5%; Glucose Levels, MEAN % Control, +Insulin (H4IIE Rat Hepatoma Cells; listed as 27): 54.3%; Glucose Levels, MEAN % Control, −Insulin (H4IIE Rat Hepatoma Cells; listed as 27): 108%
3 | RVIRMCLNVGLNGEL(dA)E (RVIRMCLNVGLNGEL[dA]E) [SEQ ID NO: 20] | 4680 (377) pg/mL | 97.5 | 102 | 75.1 | 110 | –
4 | {PEG12}KRVIRMCLGVGLLGDLAG ([PEG12′]KRVIRMCLGVGLLGDLAG) [SEQ ID NO: 16] | 3980 (569) pg/mL | 33.4 | 54.6 | 79.8 | 104 | –
5 | B1 | – | – | – | – | – | Percent Protection of Neuronal Network [2]: 95%; Percent Survival of Neurons [2]: 98%
